Calls of active or inactive are those of the source.
Legend:
Prothrombin = Prothrombin (Bos taurus, UniProt P00735); assay: thrombin protease inhibitors – biochemical, fluorescence polarization, uHTS hits, dose response (AID 602369); type: functional
[1] = biological target: 26S proteasome non-ATPase regulatory subunit 14 (Homo sapiens, UniProt O00487); assay: inhibition of proteasome subunit RPN11 – biochemical, fluorescence polarization, uHTS hits, confirmation (AID 602368); type: functional
[2] = biological target: 72 kDa type IV collagenase (Homo sapiens, UniProt P08253); assay: Dose Response validation of uHTS RPN11 inhibitor hits using a MMP-2 Fluorescence assay.; type: functional
72 kDa type IV collagenase, sequence (P08253 whole entry): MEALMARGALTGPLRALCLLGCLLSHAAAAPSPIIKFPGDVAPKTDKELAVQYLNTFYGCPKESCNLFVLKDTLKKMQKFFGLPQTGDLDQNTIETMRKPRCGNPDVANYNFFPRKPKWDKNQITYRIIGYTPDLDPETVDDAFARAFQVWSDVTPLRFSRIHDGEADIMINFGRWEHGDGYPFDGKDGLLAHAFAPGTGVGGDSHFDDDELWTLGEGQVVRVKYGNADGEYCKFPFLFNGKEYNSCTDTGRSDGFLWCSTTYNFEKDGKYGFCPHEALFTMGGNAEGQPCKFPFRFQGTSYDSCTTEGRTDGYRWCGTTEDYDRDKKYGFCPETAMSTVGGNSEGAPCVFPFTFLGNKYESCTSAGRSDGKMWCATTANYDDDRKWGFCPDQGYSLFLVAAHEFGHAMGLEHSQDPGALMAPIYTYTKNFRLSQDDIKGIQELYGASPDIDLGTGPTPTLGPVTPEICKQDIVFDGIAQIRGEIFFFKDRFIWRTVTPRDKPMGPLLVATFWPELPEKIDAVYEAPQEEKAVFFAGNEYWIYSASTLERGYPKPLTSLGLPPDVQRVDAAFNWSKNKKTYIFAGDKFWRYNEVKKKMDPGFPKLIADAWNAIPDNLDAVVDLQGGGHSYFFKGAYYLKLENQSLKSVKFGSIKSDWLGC

[3] = biological target: T1, High affinity choline transporter 1 (Homo sapiens, UniProt Q9GZV3); assay: human choline transporter potentiators, potency – cell-based, 10-point CRC, membrane potential dye, dose response (AID 602376); type: functional
T1 sequence (Q9GZV3 whole entry): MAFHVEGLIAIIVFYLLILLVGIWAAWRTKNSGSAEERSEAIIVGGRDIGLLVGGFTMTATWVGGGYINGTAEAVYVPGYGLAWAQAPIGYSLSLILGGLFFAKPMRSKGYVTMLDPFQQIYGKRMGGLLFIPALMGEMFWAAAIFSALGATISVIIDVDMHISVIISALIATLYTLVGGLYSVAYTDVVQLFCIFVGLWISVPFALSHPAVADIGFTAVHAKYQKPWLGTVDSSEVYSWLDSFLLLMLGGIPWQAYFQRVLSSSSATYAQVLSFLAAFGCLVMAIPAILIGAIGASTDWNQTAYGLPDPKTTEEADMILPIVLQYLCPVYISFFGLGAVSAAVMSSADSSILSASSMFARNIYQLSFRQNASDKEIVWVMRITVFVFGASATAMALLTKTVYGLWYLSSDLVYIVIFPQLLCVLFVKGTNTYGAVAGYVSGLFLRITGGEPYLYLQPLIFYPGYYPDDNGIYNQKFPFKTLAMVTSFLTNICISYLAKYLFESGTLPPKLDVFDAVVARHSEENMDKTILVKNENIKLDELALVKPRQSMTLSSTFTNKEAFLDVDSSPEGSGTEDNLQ

Hexokinase HKDC1 [4] = biological target: T2, Hexokinase HKDC1 (Homo sapiens, UniProt Q2TB90); assay: analog inhibition of human HKDC1 activity – biochemical, set 2, SAR follow-up (AID 588355); type: functional
T2 sequence (Q2TB90 whole entry): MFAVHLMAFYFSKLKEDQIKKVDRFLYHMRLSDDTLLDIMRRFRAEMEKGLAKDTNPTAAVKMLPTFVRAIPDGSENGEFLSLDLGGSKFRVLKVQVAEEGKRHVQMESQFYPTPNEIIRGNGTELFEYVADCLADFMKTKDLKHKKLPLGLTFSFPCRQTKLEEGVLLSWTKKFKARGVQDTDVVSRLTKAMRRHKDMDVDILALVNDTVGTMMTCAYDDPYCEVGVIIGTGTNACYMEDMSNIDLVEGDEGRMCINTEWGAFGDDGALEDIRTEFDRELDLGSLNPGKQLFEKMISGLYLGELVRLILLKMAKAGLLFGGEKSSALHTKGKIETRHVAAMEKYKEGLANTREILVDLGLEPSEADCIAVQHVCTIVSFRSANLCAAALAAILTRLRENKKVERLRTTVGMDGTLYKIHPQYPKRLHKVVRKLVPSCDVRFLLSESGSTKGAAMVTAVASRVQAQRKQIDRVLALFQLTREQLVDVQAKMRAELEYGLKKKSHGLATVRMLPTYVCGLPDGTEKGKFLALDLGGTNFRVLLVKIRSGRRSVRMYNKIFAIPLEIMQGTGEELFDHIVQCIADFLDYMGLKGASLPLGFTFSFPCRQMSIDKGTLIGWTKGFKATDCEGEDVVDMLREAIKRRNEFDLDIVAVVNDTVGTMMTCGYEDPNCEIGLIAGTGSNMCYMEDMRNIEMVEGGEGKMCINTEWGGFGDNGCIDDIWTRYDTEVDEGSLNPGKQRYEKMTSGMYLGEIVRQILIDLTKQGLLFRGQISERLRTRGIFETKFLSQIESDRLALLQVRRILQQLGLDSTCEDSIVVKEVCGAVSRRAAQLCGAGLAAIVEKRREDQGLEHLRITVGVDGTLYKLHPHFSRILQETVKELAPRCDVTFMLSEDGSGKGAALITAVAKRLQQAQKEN

Hexokinase-1 = Hexokinase-1 (Homo sapiens, UniProt P19367); assay: hexokinase 1 activity inhibitors, potency – biochemical, set 2, resazurin fluorescence coupled readout, selectivity assay for HKDC1 inhibitor project, SAR follow-up (AID 588356); type: functional
Hexokinase HKDC1 [5] = biological target: T2, Hexokinase HKDC1; assay: SAR analysis of small molecule inhibitors of hexokinase domain containing I (HKDC1) - Set 3. [Related pubchem assays (depositor defined):AID493160, AID493190]; type: functional
[6] = biological target: DNA (cytosine-5)-methyltransferase 1 (Homo sapiens, UniProt P26358); assay: inhibition of DNA methylation by DNMT1 – biochemical, fluorescent molecular beacon, confirmation (AID 602386); type: functional
[7] = THP-1 cell cytotoxicity, dose response, cytotoxicity control, set 3 (AID 504852); type: functional; conditions: Mycobacterium tuberculosis
[8] = THP-1 cell cytotoxicity, cytotoxicity control, set 4 (AID 504911); type: functional; conditions: Mycobacterium tuberculosis
[9] = biological target: T3, Rac GTPase-activating protein 1 (Homo sapiens, UniProt Q9H0H5); assay: blockers of MgcRacGAP-driven Rac1 GTP hydrolysis – biochemical, ADP Hunter fluorescence, primary and confirmatory, confirmation (AID 624330); type: functional
T3 sequence (Q9H0H5 whole entry): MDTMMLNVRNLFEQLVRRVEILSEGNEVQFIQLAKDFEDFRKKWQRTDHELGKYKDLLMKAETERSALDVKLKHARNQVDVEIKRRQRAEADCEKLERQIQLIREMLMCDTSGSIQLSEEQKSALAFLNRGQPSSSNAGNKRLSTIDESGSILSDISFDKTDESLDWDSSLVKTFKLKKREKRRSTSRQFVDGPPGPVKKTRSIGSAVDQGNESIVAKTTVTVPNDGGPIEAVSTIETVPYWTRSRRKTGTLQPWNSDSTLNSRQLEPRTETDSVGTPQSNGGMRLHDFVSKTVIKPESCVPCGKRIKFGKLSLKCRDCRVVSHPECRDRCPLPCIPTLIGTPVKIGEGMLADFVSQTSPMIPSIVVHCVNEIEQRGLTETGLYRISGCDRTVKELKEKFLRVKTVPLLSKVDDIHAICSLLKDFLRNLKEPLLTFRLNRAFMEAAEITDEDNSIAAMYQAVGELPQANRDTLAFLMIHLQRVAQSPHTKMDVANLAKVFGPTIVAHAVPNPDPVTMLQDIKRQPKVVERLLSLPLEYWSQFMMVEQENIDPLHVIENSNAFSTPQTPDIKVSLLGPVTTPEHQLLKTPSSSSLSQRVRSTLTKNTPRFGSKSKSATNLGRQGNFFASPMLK

[10] = biological target: T4, DNA repair protein RAD52 homolog (Homo sapiens, UniProt P43351); type: functional, biochemical
T4 sequence (P43351 whole entry): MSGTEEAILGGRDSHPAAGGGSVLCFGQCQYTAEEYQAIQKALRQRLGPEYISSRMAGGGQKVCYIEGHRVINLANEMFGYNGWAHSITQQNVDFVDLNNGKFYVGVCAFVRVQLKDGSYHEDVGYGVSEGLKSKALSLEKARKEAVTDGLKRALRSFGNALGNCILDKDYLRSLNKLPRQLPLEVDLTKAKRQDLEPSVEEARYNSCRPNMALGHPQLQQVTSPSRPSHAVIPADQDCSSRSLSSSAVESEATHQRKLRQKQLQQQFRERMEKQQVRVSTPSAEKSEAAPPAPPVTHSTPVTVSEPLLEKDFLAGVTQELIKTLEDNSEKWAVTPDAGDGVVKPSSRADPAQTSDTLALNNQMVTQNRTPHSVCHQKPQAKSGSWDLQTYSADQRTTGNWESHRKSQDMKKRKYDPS

[11] = A Cell Based Secondary Assay to Explore Cytotoxicity in THP-1 Cells of Compounds that Modulate Mycobacterium tuberculosis in Media Containing Glycerol versus Media without Glycerol (2).; type: functional
[12] = biological target: Cell division cycle 7-related protein kinase (Homo sapiens, UniProt O00311); type: functional;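 note: value obtained from a kinome-wide kinase panel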
Cell division cycle 7-related protein kinase, sequence (O00311 whole entry): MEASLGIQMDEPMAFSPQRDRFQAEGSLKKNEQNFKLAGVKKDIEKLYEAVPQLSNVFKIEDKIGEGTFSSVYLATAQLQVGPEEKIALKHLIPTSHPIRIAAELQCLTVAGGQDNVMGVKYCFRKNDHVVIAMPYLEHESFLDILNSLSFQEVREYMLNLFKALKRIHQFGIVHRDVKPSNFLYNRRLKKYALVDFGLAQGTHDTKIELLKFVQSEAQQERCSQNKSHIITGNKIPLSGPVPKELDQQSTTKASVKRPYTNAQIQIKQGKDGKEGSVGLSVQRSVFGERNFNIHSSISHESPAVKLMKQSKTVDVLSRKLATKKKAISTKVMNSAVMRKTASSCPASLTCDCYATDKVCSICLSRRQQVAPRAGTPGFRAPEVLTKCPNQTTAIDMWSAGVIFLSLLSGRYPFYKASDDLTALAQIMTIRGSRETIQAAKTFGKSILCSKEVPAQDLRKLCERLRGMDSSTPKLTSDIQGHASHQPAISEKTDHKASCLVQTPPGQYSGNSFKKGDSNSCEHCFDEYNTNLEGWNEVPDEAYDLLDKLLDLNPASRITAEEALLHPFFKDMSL

[13] = biological target: ALK tyrosine kinase receptor (Homo sapiens, UniProt Q9UM73); type: functional;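 note: ALK tested as one member of a kinase panel screen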
[14] = biological target: cAMP-dependent protein kinase catalytic subunit alpha (Homo sapiens, UniProt P17612); type: functional
[15] = biological target: Mitogen-activated protein kinase kinase kinase kinase 4 (Homo sapiens, UniProt O95819); type: functional
Mitogen-activated protein kinase kinase kinase kinase 4, sequence (O95819 whole entry): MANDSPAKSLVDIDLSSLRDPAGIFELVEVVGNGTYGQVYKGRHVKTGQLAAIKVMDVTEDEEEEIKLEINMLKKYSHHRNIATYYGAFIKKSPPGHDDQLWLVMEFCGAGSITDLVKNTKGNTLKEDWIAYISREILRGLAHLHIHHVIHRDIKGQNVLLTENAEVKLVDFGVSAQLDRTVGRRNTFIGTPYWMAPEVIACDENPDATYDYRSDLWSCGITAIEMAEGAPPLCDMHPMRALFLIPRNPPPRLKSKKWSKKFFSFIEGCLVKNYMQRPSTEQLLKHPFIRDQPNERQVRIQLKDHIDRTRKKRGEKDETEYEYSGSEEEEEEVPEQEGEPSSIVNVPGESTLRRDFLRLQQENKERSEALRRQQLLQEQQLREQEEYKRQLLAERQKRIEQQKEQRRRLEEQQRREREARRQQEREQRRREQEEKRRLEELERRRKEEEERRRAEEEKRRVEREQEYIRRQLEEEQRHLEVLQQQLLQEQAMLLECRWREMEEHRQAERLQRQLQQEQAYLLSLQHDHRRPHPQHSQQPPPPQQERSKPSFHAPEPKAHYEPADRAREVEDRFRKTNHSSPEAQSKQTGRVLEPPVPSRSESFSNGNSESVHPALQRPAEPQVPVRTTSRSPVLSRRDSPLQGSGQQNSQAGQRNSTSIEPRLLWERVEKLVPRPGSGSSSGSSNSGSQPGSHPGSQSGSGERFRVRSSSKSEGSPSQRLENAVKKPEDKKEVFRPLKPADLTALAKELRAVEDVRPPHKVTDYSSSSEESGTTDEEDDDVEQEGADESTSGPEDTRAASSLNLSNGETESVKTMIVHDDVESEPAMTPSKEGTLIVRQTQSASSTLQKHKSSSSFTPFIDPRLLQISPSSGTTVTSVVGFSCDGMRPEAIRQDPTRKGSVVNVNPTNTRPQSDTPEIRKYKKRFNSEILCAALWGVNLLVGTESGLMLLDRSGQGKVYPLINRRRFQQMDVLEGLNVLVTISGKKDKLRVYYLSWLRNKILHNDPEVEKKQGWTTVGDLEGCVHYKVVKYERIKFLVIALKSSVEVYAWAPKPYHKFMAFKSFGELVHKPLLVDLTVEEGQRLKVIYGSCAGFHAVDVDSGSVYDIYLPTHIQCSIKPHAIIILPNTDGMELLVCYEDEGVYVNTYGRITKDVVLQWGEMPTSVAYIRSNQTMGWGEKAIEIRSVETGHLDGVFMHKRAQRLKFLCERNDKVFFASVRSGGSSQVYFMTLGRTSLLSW

[16] = biological target: Interleukin-1 receptor-associated kinase 4 (Homo sapiens, UniProt Q9NWZ3); type: functional
[17] = biological target: Serine/threonine-protein kinase pim-1 (Homo sapiens, UniProt P11309); type: functional
[18] = biological target: Homeodomain-interacting protein kinase 2 (Homo sapiens, UniProt Q9H2X6); type: functional;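 note: measured within a kinome-wide kinase profiling panel, HIPK2 being one panel member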
[19] = biological target: Glycogen synthase kinase-3 beta (Homo sapiens, UniProt P49841); type: functional;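 note: value comes from a broad kinome profiling panel, with GSK3B as the panel member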
Glycogen synthase kinase-3 beta, sequence (P49841 whole entry): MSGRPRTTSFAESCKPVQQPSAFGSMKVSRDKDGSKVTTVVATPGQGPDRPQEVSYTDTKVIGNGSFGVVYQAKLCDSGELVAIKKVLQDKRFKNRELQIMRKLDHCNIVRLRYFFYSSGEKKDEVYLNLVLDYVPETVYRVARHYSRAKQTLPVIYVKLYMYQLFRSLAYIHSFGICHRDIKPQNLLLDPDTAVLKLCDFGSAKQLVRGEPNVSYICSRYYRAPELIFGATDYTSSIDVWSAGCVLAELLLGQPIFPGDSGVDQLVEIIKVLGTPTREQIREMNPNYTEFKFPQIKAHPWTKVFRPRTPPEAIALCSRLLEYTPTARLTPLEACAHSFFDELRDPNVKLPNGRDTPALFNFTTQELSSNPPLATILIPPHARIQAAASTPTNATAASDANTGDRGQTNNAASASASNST

[20] = biological target: Dual specificity protein kinase CLK4 (Homo sapiens, UniProt Q9HAZ1); type: functional
Dual specificity protein kinase CLK4, sequence (Q9HAZ1 whole entry): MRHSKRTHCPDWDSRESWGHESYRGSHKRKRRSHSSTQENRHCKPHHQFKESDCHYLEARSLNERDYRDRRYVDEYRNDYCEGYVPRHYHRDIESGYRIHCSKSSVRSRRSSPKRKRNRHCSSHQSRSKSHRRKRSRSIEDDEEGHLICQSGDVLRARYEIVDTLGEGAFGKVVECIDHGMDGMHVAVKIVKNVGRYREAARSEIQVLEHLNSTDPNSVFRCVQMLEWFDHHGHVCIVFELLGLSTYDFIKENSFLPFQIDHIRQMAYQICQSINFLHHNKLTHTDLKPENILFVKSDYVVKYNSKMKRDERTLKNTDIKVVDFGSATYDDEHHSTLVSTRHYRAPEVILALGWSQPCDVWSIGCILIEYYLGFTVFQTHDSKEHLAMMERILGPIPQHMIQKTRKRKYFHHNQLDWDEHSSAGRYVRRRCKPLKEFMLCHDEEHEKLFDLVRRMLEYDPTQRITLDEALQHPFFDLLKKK

Misshapen-like kinase 1 = Misshapen-like kinase 1 (Homo sapiens, UniProt Q8N4C8); type: functional;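 note: kinome panel screen with MINK as the panel member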
[21] = biological target: Tyrosine-protein kinase receptor UFO (Homo sapiens, UniProt P30530); type: functional
Tyrosine-protein kinase receptor UFO, sequence (P30530 whole entry): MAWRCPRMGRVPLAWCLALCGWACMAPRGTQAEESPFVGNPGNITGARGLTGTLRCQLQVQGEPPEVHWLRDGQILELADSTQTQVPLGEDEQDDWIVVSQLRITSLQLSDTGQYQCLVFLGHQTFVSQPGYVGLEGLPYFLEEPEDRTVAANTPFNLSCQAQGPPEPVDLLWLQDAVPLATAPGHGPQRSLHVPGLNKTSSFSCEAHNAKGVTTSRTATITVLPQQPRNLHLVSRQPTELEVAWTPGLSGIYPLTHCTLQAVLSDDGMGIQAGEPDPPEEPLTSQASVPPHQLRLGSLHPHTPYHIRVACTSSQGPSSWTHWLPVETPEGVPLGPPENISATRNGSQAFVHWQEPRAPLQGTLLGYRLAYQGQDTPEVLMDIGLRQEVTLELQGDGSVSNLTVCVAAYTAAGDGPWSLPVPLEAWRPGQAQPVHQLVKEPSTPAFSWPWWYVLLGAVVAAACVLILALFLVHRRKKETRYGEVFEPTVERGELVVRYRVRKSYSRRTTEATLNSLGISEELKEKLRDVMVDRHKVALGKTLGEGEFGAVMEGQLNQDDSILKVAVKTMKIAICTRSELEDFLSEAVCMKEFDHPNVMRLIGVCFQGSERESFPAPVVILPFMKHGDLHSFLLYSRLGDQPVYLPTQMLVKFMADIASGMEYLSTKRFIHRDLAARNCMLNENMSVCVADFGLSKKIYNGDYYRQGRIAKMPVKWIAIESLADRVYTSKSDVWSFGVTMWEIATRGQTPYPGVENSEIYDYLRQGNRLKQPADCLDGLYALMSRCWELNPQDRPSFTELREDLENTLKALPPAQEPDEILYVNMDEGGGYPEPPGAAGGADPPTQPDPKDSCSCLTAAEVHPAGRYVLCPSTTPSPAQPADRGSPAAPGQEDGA

[22] = biological target: Cyclin-dependent kinase 1 (Homo sapiens, UniProt P06493); type: functional;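 note: Kinome-wide panel profiling, with the target listed as panel member CDC2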
[23] = biological target: MAP/microtubule affinity-regulating kinase 3 (Homo sapiens, UniProt P27448); type: functional;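 note: MARK3 affinity measured as one member of a kinome panel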
MAP/microtubule affinity-regulating kinase 3, sequence (P27448 whole entry): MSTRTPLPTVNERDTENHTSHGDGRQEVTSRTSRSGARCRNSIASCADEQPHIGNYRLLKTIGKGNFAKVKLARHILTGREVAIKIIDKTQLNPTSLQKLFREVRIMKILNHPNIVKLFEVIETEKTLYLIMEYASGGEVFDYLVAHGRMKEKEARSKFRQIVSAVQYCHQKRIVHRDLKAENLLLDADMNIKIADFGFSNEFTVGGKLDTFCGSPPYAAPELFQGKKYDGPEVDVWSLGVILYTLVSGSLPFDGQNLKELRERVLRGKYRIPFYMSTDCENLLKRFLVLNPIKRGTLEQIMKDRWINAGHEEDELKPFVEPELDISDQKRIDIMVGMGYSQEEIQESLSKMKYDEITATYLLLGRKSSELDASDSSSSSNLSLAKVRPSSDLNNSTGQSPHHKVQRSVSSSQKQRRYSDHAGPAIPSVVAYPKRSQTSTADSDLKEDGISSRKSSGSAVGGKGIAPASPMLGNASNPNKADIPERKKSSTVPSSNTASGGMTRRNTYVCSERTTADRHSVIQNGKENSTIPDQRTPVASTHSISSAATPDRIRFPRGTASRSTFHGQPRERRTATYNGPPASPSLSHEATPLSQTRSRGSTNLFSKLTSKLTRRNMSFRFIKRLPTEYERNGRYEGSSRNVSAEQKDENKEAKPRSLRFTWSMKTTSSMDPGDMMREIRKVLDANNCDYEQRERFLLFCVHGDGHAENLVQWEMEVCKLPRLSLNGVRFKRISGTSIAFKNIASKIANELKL

[24] = biological target: Dual specificity protein kinase CLK2 (Homo sapiens, UniProt P49760); type: functional
[25] = biological target: Cyclin-dependent kinase 5 (Homo sapiens, UniProt Q00535); type: functional;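 note: CDK5 measured as one member of a kinase profiling panel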
[26] = biological target: STE20-like serine/threonine-protein kinase (Homo sapiens, UniProt Q9H2G2); type: functional

COc1ccc(CCNc2ccc(C(CC(N)=O)NC(=O)Cc3cccc4ccccc34)cc2[N+](=O)[O-])cc1 (stereo not drawn)
IC50 (Prothrombin): 40.1 µM (active) | IC50 [1]: 25.8 µM (active) | IC50 [2]: > 100 µM (inactive)

CC(NCc1cc(Br)ccc1OCC(N)=O)C12CC3CC(CC(C3)C1)C2 (stereo not drawn)
EC50 [3]: 13.8 µM (active)

CC(=O)NC1C(=O)N(CCN2CCOCC2)c2ccc(Br)cc21 (stereo not drawn)
IC50 (Hexokinase HKDC1 [4]): > 80 µM (inactive) | IC50 (Hexokinase-1): > 80 µM (inactive) | IC50 (Hexokinase HKDC1 [5]): > 80 µM (inactive)

CC[N+](C)(CC)CCCCOc1ccc2c(c1)C(=O)c1cc(OCCCC[N+](C)(CC)CC)ccc1-2
IC50 [6]: 1.24 µM (active) | CC50 [7]: 17.1 µM (active) | CC50 [8]: 10.5 µM (active) | IC50 [9]: 180 µM (active) | AC50 [10]: 0.574 µM (active) | CC50 [11]: 38.8 µM (active)

Oc1cccc(-c2c[nH]c3ncccc23)c1
Ki [12]: 0.316 µM (active) | Ki [13]: > 3.16 µM (inactive)

O=C1Nc2ccccc2Nc2cc(-c3ccncc3)ccc21
Ki [14]: 1.26 µM (active) | Ki [12]: 0.00794 µM (active) | Ki [15]: 1.26 µM (active) | Ki [16]: 2.51 µM (active) | Ki [17]: > 10 µM (inactive) | Ki [18]: > 3.16 µM (inactive) | Ki [19]: 0.398 µM (active) | Ki [20]: 0.0398 µM (active)

CC(C)Oc1ccc(-c2noc(-c3ccc(CN4CC(C(=O)O)C4)cc3)n2)cc1Cl
Ki [15]: 5.01 µM (active) | Ki (Misshapen-like kinase 1): 6.31 µM (active)

Cc1n[nH]c2c1C(c1ccccc1Br)C(C#N)=C(N)O2 (stereo not drawn)
Ki [21]: 2 µM (active) | Ki [22]: 5.01 µM (active) | Ki [23]: 2 µM (active) | Ki [24]: 3.16 µM (active) | Ki [25]: 3.16 µM (active) | Ki [26]: 1.58 µM (active) | Ki [19]: 3.98 µM (active) | Ki [20]: 5.01 µM (active)

From ChEMBL document CHEMBL1201862, “PubChem BioAssay data set” (2004)
